Legend:
[1] = tested on: fibrinolysis in a blood sample with reduced platelet function; test: Functional Fibrinogen (FF) TEG assay with and without tranexamic acid (TXA)
[2] = tested on: fibrinolysis in citrated whole blood; test: Citrated Kaolin (CK) TEG assay, blood spiked with increasing t-PA, LY30; set-up: species or system human; settings: 15 healthy donors, eight t-PA concentrations, FIG. 9
Protocol: For the Citrated Kaolin group, citrated blood from each of the donors (e.g., whole blood collected into a tube containing sodium citrate (thereby creating a ratio blood to citrate of approximately 9:1) is collected. For eight different tPA concentrations, 0.5 ml of the blood was gently mixed with Kaolin (a coagulation activator) and increasing concentrations of t-PA to induce fibrinolysis. Aliquots were transferred to 37° C. TEG cups, and the samples were analyzed using the TEG 5000 device, and the LY30 calculated for each of the 15 donors at each of the tPA concentrations. The results plotting the LY30 against the t-PA concentration are shown in FIG. 9.

[3] = tested on: fibrinolysis in citrated blood with FF reagent (GPIIb/IIIa receptor antagonist); test: Functional Fibrinogen TEG assay with/without TXA, blood spiked with increasing t-PA, ΔLY30; set-up: species or system human; settings: 15 healthy donors, eight t-PA concentrations, FIG. 10
Protocol: The two TEG cups for each of the fifteen donors at the eight different t-PA concentrations were analyzed on a TEG 5000 device.

Molecule	LY30 ([1]; TXA-treated sample of FIG. 6, amplitude at 74 minutes, the sample not treated with TXA had LY30 approximately 50%)	TEG tracing of the TXA-treated portion compared with the portion not treated with TXA ([1]; blood from a patient with fibrinolysis or hyperfibrinolysis, FIGS. 5 and 6, divergence from about 2 minutes)	Detection threshold [tPA] for CK-LY30 [2] [ng/mL]	Detection threshold [tPA] for ΔLY30 [3] [ng/mL]
NC[C@H]1CC[C@H](C(=O)O)CC1 [TXA, tranexamic acid]	approximately 0.1%	higher amplitude, faster growing TEG tracing		
tPA: tissue plasminogen activator, converts inactive plasminogen to active plasmin; spiked into blood to induce fibrinolysis			75 to 100	25 to 50

— US20150316565A1, “Methodologies and Reagents for Detecting Fibrinolysis and Hyperfibrinolysis” (Haemonetics Corporation, priority 2014, published 2015)
